Where “and” joins values, the source holds several entries; their conditions need not be identical. Equal entries are not always repeated. Where two headings read alike, the source gives them in different places.
How the values were obtained:
E. coli 14384 = experiment: Antibiotic MIC by microdilution with or without sub-MIC polymer; assay type: cell-based, Escherichia coli; conditions: E. coli 14384
Method in brief: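 OD 620 nm after 24 h at 37° C gave the inhibition of proliferation. Bacteria at 10^5 per ml were exposed to 2-fold serial antibiotic dilutions, with or without […].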

E. coli 16327 = experiment: microbe, parasite or virus in culture
E. coli 16329 = assay type: cell-based, Escherichia coli
Method: MICs were determined by microdilution susceptibility testing in 96-well plates (by Nunc) using inocula of 10^5 bacteria per ml. Cell populations were evaluated by optical density measurements at 620 nm and were calibrated against a set of standards. Hundred (100) μl of a bacterial suspension were added to 100 μl of culture medium (control) or to 100 μl of culture medium containing various polymer concentrations in 2-fold serial dilutions. Inhibition of proliferation was determined by optical density measurements at 620 nm after an incubation period of 24 hours at 37° C.
100 μl of a bacterial suspension were added to 100 μl of culture medium (control) or to 100 μl of culture medium containing various antibiotic and C14(9-ene)KKNC12KNH2 (SEQ ID NO: 5) concentrations in 2-fold serial dilutions. Inhibition of proliferation was determined by optical density measurements at 620 nm after an incubation period of 24 hours at 37° C.

E. coli 14182 = experiment: Antibiotic MIC by microdilution with or without sub-MIC polymer; assay type: cell-based, Escherichia coli
S. maltophila 748 = experiment: as above; assay type: cell-based, Stenotrophomonas maltophila
[1] = system: E. coli K-12 resistant wild type; assay type: cell-based, Escherichia coli; conditions: E. coli AG100 (w.t.)
S. aureus 43300 = experiment: Antibiotic MIC by microdilution with or without sub-MIC polymer; assay type: cell-based, Staphylococcus aureus

Question: `Cc1onc(-c2ccccc2)c1C(=O)N[C@@H]1C(=O)N2[C@@H]1SC(C)(C)[C@@H]2C(=O)O` [Oxacillin, oxacillin] was tested. Which “Antibiotic MIC in presence of C12K(NC8K)7NH2 (SEQ ID NO: 4), +½ MIC” value (shortened to “Antibiotic MIC … (SEQ ID NO: 4), +½ MIC”) (E. coli 14384; polymer at ½ of its MIC) did it give?
Answer: >512 µg/mL

Question: And the “Antibiotic MIC in presence of C12K(NC8K)7NH2 (SEQ ID NO: 4), +⅓ MIC” value (shortened to “Antibiotic MIC … (SEQ ID NO: 4), +⅓ MIC”) (E. coli 14384; polymer at ⅓ of its MIC)?
Answer: >512 µg/mL

Question: And the “Antibiotic MIC” value (E. coli 16327)?
Answer: 512 µg/mL and >512 µg/mL

Question: What about the “Antibiotic MIC” value (E. coli 16327; E. coli 16327, +¼ MIC (1.6 μM) C12K(KNC12K)2NH2) of the same molecule?
Answer: >512 µg/mL

Question: And the “Antibiotic MIC” value (E. coli 16327; E. coli 16327, +½ MIC (3.12 μM) C12K(KNC12K)2NH2)?
Answer: 512 µg/mL

Question: What about the “Antibiotic MIC” value (E. coli 16327; E. coli 16327, +⅓ MIC (2.1 μM) C12K(KNC12K)2NH2) of the same molecule?
Answer: >512 µg/mL

Question: What about the “Antibiotic MIC” value (E. coli 16327; E. coli 16327, no polymer (None), Table 9) of the same molecule?
Answer: >512 µg/mL

Question: What about the “Antibiotic MIC” value (E. coli 16327; E. coli 16327, no polymer (None), Table 10) of the same molecule?
Answer: >512 µg/mL

Question: What about the “Antibiotic MIC” value (E. coli 16327; E. coli 16327, no polymer (None), Table 12) of the same molecule?
Answer: >512 µg/mL

Question: What about the “MIC, ¼ + MIC OAK” value (E. coli 16327; E. coli U16327, with C12K(KNC10K)3NH2 (SEQ ID NO: 10) at ¼ of its MIC) of the same molecule?
Answer: >512 µg/mL

Question: And the “MIC, ⅓ + MIC OAK” value (E. coli 16327; E. coli U16327, with C12K(KNC10K)3NH2 (SEQ ID NO: 10) at ⅓ of its MIC)?
Answer: >512 µg/mL

Question: And the “Antibiotic MIC, None” value (E. coli 16327; E. coli U-16327, antibiotic alone (Table 15))?
Answer: >512 µg/mL

Question: And the “Antibiotic MIC in presence of C12K(NC8K)7NH2 (SEQ ID NO: 4), +¼ MIC” value (“Antibiotic MIC … (SEQ ID NO: 4), +¼ MIC” below) (E. coli 16327; E. coli U-16327, polymer at ¼ of its MIC)?
Answer: >512 µg/mL

Question: And the “Antibiotic MIC … (SEQ ID NO: 4), +½ MIC” value (E. coli 16327; E. coli U-16327, polymer at ½ of its MIC)?
Answer: 512 µg/mL

Question: What about the “Antibiotic MIC … (SEQ ID NO: 4), +⅓ MIC” value (E. coli 16327; E. coli U-16327, polymer at ⅓ of its MIC) of the same molecule?
Answer: >512 µg/mL

Question: What about the MIC (E. coli 16327; Escherichia coli, 16327, read-out: MIC, Alone) of the same molecule?
Answer: > 512 µg/mL

Question: And the “Antibiotic MIC” value (E. coli 16329)?
Answer: >512 µg/mL

Question: And the “Antibiotic MIC” value (E. coli 16329; E. coli 16329, no polymer (None), Table 10)?
Answer: >512 µg/mL

Question: What about the “Antibiotic MIC” value (E. coli 16329; E. coli U-16329, +¼ MIC C12K(NC8K)5NH2) of the same molecule?
Answer: >512 µg/mL

Question: And the “Antibiotic MIC” value (E. coli 16329; E. coli U-16329, +½ MIC C12K(NC8K)5NH2)?
Answer: >512 µg/mL

Question: And the “Antibiotic MIC” value (E. coli 16329; E. coli U-16329, +⅓ MIC C12K(NC8K)5NH2)?
Answer: >512 µg/mL

Question: What about the “Antibiotic MIC, None” value (E. coli 16329; E. coli U-16329, antibiotic alone (Table 15)) of the same molecule?
Answer: >512 µg/mL

Question: And the “Antibiotic MIC” value (E. coli 16329; E. coli U-16329, no polymer (None), Table 14)?
Answer: >512 µg/mL

Question: And the “Antibiotic MIC … (SEQ ID NO: 4), +¼ MIC” value (E. coli 16329; E. coli U-16329, polymer at ¼ of its MIC)?
Answer: >512 µg/mL

Question: And the “Antibiotic MIC … (SEQ ID NO: 4), +½ MIC” value (E. coli 16329; E. coli U-16329, polymer at ½ of its MIC)?
Answer: 512 µg/mL

Question: And the “Antibiotic MIC … (SEQ ID NO: 4), +⅓ MIC” value (E. coli 16329; E. coli U-16329, polymer at ⅓ of its MIC)?
Answer: >512 µg/mL

Question: And the “Antibiotic MIC” value (E. coli 14182; +½ MIC C12K(NC8K)5NH2)?
Answer: >512 µg/mL

Question: What about the “Antibiotic MIC, None” value (E. coli 14182; antibiotic alone (Table 15)) of the same molecule?
Answer: >512 µg/mL

Question: And the “Antibiotic MIC” value (E. coli 14182; no polymer (None), Table 14)?
Answer: >512 µg/mL

Question: And the “Antibiotic MIC … (SEQ ID NO: 4), +¼ MIC” value (E. coli 14182; polymer at ¼ of its MIC)?
Answer: >512 µg/mL

Question: What about the “Antibiotic MIC … (SEQ ID NO: 4), +½ MIC” value (E. coli 14182; polymer at ½ of its MIC) of the same molecule?
Answer: >512 µg/mL

Question: What about the “Antibiotic MIC … (SEQ ID NO: 4), +⅓ MIC” value (E. coli 14182; polymer at ⅓ of its MIC) of the same molecule?
Answer: >512 µg/mL

Question: What about the “Antibiotic MIC” value (S. maltophila 748; +¼ MIC (1.6 μM) C12K(KNC12K)3NH2) of the same molecule?
Answer: 512 µg/mL

Question: What about the “Antibiotic MIC” value (S. maltophila 748; +½ MIC (3.12 μM) C12K(KNC12K)3NH2) of the same molecule?
Answer: 256 µg/mL

Question: What about the “Antibiotic MIC” value (S. maltophila 748; +⅓ MIC (2.1 μM) C12K(KNC12K)3NH2) of the same molecule?
Answer: 512 µg/mL

Question: What about the “Antibiotic MIC” value (S. maltophila 748; no polymer (None), Table 13) of the same molecule?
Answer: 512 µg/mL

Question: And the “Antibiotic MIC, None” value ([1]; antibiotic alone (Table 16))?
Answer: 512 µg/mL

Question: What about the “Antibiotic MIC, None” value ([1]; antibiotic alone (Table 17)) of the same molecule?
Answer: 512 µg/mL

Question: What about the “Antibiotic MIC … (SEQ ID NO: 4), +½ MIC” value ([1]; polymer at ½ of its MIC (Table 16)) of the same molecule?
Answer: 32 to 64 µg/mL

Question: What about the “Antibiotic MIC in presence of the OAK, +¼ MIC” value ([1]; the OAK at ¼ of its MIC (Table 17)) of the same molecule?
Answer: 256 µg/mL

Question: What about the “Antibiotic MIC in presence of the OAK, +½ MIC” value ([1]; the OAK at ½ of its MIC (Table 17)) of the same molecule?
Answer: 32 to 64 µg/mL

Question: And the “Antibiotic MIC” value (S. aureus 43300; +¼ MIC (1.6 μM) C12(5-ene)KKNC12KNH2)?
Answer: 0.125 µg/mL

Question: And the “Antibiotic MIC” value (S. aureus 43300; +¼ MIC (1.6 μM) C12KKNC12KNH2)?
Answer: 0.5 µg/mL

Question: And the “Antibiotic MIC” value (S. aureus 43300; +¼ MIC (1.6 μM) C16(9-ene)KKNC12KNH2)?
Answer: 0.25 to 0.5 µg/mL

Question: What about the “Antibiotic MIC” value (S. aureus 43300; +½ MIC (3.12 μM) C12K(KNC12K)2NH2) of the same molecule?
Answer: 0.25 µg/mL

Question: What about the “Antibiotic MIC” value (S. aureus 43300; +½ MIC (3.12 μM) C12KKNC12KNH2) of the same molecule?
Answer: 0.25 µg/mL

Question: What about the “Antibiotic MIC” value (S. aureus 43300; +½ MIC (3.12 μM) C16(9-ene)KKNC12KNH2) of the same molecule?
Answer: 0.03 to 0.06 µg/mL

Question: And the “Antibiotic MIC” value (S. aureus 43300; +⅓ MIC (2.1 μM) C12(5-ene)KKNC12KNH2)?
Answer: 0.125 µg/mL

Question: And the “Antibiotic MIC” value (S. aureus 43300; +⅓ MIC (2.1 μM) C12K(KNC12K)2NH2)?
Answer: 0.25 µg/mL

Source: patent US20180153995A1, “USE OF ANTIMICROBIAL POLYMERS FOR RE-SENSITIZATION OF MICROORGANISMS UPON EMERGENCE OF RESISTANCE TO ANTI-MICROBIAL AGENTS” (Technion Research & Development Foundation Limited, priority 2008, published 2018)
